# From patent US12427210B2, “Compounds comprising a fibroblast activation protein ligand and use thereof” (priority 2019, dated 2025)
# Numbered stars: 1 amine (or outer) side, 2 acyl side, 3 side chain; on linkers, the order of the positions; unused ones are H or OH. Bridge positions count the residues as written; N and C are the ends. Peptide text beside a SMILES is read from it. * marks the point of attachment. X5 = O=C1CN2CCN3CCN(CC(=O)N4CCN(Cc5cc(C[*:1])cc(C[*:2])c5)CC4)CCN(CC2)CC(=O)[O][Eu]([O]1)[O]C(=O)C3; Hexanoyl = CCCCCC(=O)*
# Tests used:
# 5-HT2B (h) = 5-HT2B (h) (Homo sapiens, UniProt P41595); settings: read-out: Ki Ref; reference compound
# Renin = molecular target: T1, Renin (Homo sapiens, UniProt P00797); assay: biochemical; settings: read-out: Percentage inhibition (%), Reference
# T1 sequence (P00797 67-406): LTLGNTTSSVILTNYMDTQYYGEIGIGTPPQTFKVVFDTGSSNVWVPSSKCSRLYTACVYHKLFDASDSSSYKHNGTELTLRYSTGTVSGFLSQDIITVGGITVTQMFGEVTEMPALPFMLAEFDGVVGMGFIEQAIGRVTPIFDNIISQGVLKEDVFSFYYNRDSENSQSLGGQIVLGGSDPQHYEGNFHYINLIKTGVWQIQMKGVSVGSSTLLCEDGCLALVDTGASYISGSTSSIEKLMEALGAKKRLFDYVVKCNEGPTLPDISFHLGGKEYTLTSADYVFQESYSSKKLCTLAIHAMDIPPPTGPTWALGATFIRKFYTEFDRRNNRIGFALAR
# NMDA = settings: read-out: Ki Ref; reference compound
# Caspase-7 = molecular target: T2, Caspase-7 (Homo sapiens, UniProt P55210); settings: 1 μM
# T2 sequence (P55210 24-198 limits assumed): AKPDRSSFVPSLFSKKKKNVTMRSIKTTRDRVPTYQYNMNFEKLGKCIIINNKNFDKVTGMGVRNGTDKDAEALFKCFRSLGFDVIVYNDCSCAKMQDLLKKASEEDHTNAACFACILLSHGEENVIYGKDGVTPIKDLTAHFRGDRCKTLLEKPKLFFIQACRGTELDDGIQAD
# T2 sequence (P55210 207-303 limits assumed): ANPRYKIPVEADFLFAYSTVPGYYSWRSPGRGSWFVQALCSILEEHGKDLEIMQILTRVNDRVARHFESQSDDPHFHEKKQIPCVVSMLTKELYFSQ
# Caspase-3 = molecular target: T3, Caspase-3 (Homo sapiens, UniProt P42574); settings: 100 nM
# T3 sequence (P42574 29-175 limits assumed): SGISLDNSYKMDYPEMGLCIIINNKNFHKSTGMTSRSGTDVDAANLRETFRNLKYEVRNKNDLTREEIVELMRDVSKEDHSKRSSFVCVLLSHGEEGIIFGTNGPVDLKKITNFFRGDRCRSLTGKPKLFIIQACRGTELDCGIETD
# T3 sequence (P42574 176-277 limits assumed): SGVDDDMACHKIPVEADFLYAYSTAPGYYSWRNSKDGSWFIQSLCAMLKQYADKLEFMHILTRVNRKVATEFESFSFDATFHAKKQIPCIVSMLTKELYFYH
# in vitro [1] = settings: human, plasma
# [2] = molecular target: FAP-expressing human WI-38 fibroblasts (Homo sapiens, UniProt Q12884); assay: cell-based
# FAP [3] = molecular target: T4, FAP (Homo sapiens, UniProt Q12884); assay: biochemical
# FAP [4] = molecular target: T4, FAP; assay: biochemical; remark: listed apart in the source
# in vitro [5] = settings: mouse, plasma
# in vitro [6] = settings: rat, plasma
# Cathepsin B = Cathepsin B (Homo sapiens, UniProt P07858); settings: 100 nM
# Cathepsin L = Cathepsin L (Homo sapiens, UniProt P07711); settings: 1 μM
# Cathepsin S = Cathepsin S (Homo sapiens, UniProt P25774); settings: 100 nM
# Cathepsin V = Cathepsin V (Homo sapiens, UniProt O60911); settings: 100 nM
# Activated Protein C = Activated Protein C (Homo sapiens, UniProt P04070); assay: biochemical; settings: read-out: Percentage inhibition (%), Reference
# alpha 1A (h) = molecular target: T5, alpha 1A (h) (Homo sapiens, UniProt P35348); settings: read-out: Ki Ref; reference compound
# T5 sequence (P35348 1-466): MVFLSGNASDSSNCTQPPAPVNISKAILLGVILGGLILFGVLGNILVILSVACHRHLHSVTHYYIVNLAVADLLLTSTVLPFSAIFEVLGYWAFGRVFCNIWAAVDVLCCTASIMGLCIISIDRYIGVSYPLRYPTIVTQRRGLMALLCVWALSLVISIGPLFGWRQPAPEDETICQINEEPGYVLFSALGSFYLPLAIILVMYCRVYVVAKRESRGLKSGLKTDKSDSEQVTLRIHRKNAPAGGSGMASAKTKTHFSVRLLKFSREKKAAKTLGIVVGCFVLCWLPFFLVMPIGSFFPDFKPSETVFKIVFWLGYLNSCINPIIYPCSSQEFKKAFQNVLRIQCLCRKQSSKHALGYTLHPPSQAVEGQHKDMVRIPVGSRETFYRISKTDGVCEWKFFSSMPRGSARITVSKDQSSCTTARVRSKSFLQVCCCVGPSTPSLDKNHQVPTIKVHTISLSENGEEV
# HEK-FAP tumors = assay: Efficacy study HEK-FAP
# Sarc4809 PDX tumors = assay: Efficacy study sarcoma Sarc4809 PDX model
# Cathepsin F = molecular target: T6, Cathepsin F (Homo sapiens, UniProt Q9UBX1); settings: 1 μM
# T6 sequence (Q9UBX1 271-484): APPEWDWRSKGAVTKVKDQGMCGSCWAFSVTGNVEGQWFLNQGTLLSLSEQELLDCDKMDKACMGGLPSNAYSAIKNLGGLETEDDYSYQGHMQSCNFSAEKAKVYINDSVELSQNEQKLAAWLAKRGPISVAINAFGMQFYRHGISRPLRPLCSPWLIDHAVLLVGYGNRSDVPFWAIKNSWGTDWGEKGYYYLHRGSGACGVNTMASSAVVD
# KV channel = settings: read-out: Ki Ref; reference compound
# [7] = throughout the study, all groups
molecule,measurement,setting,value
COc1cc(CC(C)N)c(OC)cc1I (racemic) [(±)DOI],Ki,5-HT2B (h),4.2 nM
"COCCCOc1cc(C[C@@H](C[C@H](N)[C@@H](O)C[C@H](C(=O)NCC(C)(C)C(N)=O)C(C)C)C(C)C)ccc1OC [Aliskiren, reference compound]",inhibition at 0.03 µM,Renin,99%
"O=C(O)[C@@H]1C[C@H](CP(=O)(O)O)CCN1 [CGS 19755, reference compound]",Ki,NMDA,140 nM
COC[C@@H]1CCCN1S(=O)(=O)c1ccc2c(c1)C(=O)C(=O)N2 [Caspase 3/7 Inhibitor I],"Percentage inhibition (%), Reference",Caspase-7,92%
same,"Percentage inhibition (%), Reference",Caspase-3,89%
"CCCCCC(=O)N[C@H]1CSCc2cc(CSCCNC(=O)CN3CCN4CCN5CCN(CC3)CC(=O)[O][Lu]([O]C(=O)C4)[O]C(=O)C5)cc(c2)CSC[C@@H](C(=O)O)NC(=O)[C@H](Cc2ccccc2)NC(=O)[C@H](CCC(N)=O)NC(=O)[C@H]([C@@H](C)O)NC(=O)[C@@H]2CCCN2C(=O)[C@@H]2CCCN2C1=O [Compound 3BP-3624, Hex-[Cys(tMeBn(LuDOTA-AET))-Pro-Pro-Thr-Gln-Phe-Cys]-OH]","remaining at 24 h, 9.8 µM",in vitro [1],100%
same,IC50,[2],< 10 nM
same,Kd,FAP [3],< 10 nM
same,IC50,FAP [4],< 10 nM
same,"remaining at 24 h, 9.8 µM",in vitro [5],100%
same,"remaining at 24 h, 9.8 µM",in vitro [6],100%
"CCCCCC(=O)N[C@H]1CSCc2cc(cc(CN3CCN(C(=O)CN4CCN5CCN6CCN(CC4)CC(=O)[O][Eu]([O]C(=O)C6)[O]C(=O)C5)CC3)c2)CSC[C@@H](C(=O)N[C@@H](CC(=O)O)C(N)=O)NC(=O)[C@H](Cc2ccccc2)NC(=O)[C@H](CCC(N)=O)NC(=O)[C@H]([C@@H](C)O)NC(=O)[C@@H]2CCCN2C(=O)[C@@H]2CCCN2C1=O [Compound 3BP-3661, Hex-[Cys(tMeBn(EuDOTA-PP))-Pro-Pro-Thr-Gln-Phe-Cys]-Asp-NH2] (Hexanoyl-CPPTQFCD-NH2; linker 1-7 via X5)",IC50,[2],< 10 nM
same,IC50,FAP [4],< 10 nM
"CCCCCC(=O)N[C@H]1CSCc2cc(CSCCNC(=O)CN3CCN4CCN5CCN(CC3)CC(=O)[O][Eu]([O]C(=O)C4)[O]C(=O)C5)cc(c2)CSC[C@@H](C(=O)O)NC(=O)[C@H](Cc2ccccc2)NC(=O)[C@H](CCC(N)=O)NC(=O)[C@H]([C@@H](C)O)NC(=O)[C@@H]2CCCN2C(=O)[C@@H]2CCCN2C1=O [Compound 3BP-3662, Hex-[Cys(tMeBn(EuDOTA-AET))-Pro-Pro-Thr-Gln-Phe-Cys]-OH]",IC50,[2],< 10 nM
same,IC50,FAP [4],< 10 nM
"CCCCCC(=O)N[C@H]1CSCc2cc(CSCCNC(=O)CN3CCN4CCN5CCN(CC3)CC(=O)[O][Ga]([O]C(=O)C4)[O]C(=O)C5)cc(c2)CSC[C@@H](C(=O)O)NC(=O)[C@H](Cc2ccccc2)NC(=O)[C@H](CCC(N)=O)NC(=O)[C@H]([C@@H](C)O)NC(=O)[C@@H]2CCCN2C(=O)[C@@H]2CCCN2C1=O [Compound 3BP-3949, Hex-[Cys(tMeBn(GaDOTA-AET))-Pro-Pro-Thr-Gln-Phe-Cys]-OH]",IC50,[2],< 10 nM
same,Kd,FAP [3],< 10 nM
same,IC50,FAP [4],< 10 nM
"CCCCCC(=O)N[C@H]1CSCc2cc(CSCCNC(=O)CN3CCN4CCN(CC(=O)O)CCN(CC3)CC(=O)[O][Cu][O]C(=O)C4)cc(c2)CSC[C@@H](C(=O)O)NC(=O)[C@H](Cc2ccccc2)NC(=O)[C@H](CCC(N)=O)NC(=O)[C@H]([C@@H](C)O)NC(=O)[C@@H]2CCCN2C(=O)[C@@H]2CCCN2C1=O [Compound 3BP-4293, Hex-[Cys-(tMeBn(CuDOTA-AET))-Pro-Pro-Thr-Gln-Phe-Cys]-OH]",IC50,[2],< 10 nM
same,IC50,FAP [4],< 10 nM
"CCCCCC(=O)N[C@H]1CSCc2cc(CSCCNC(=O)CN3CCN4CCN(CC(=O)O)CCN(CC3)CC(=O)[O][Zn][O]C(=O)C4)cc(c2)CSC[C@@H](C(=O)O)NC(=O)[C@H](Cc2ccccc2)NC(=O)[C@H](CCC(N)=O)NC(=O)[C@H]([C@@H](C)O)NC(=O)[C@@H]2CCCN2C(=O)[C@@H]2CCCN2C1=O [Compound 3BP-4343, Hex-[Cys-(tMeBn(ZnDOTA-AET))-Pro-Pro-Thr-Gln-Phe-Cys]-OH]",IC50,[2],< 10 nM
same,IC50,FAP [4],< 10 nM
"CC(C)C[C@H](NC(=O)[C@H]1O[C@@H]1C(=O)O)C(=O)NCCCCN=C(N)N [Compound E-64, E-64]","Percentage inhibition (%), Reference",Cathepsin B,97%
same,"Percentage inhibition (%), Reference",Cathepsin L,97%
same,"Percentage inhibition (%), Reference",Cathepsin S,91%
same,"Percentage inhibition (%), Reference",Cathepsin V,83%
"[H]/N=C(/N)c1ccc(NCc2nc3cc(C(=O)N(CCC(=O)O)c4ccccn4)ccc3n2C)cc1 [Dabigatran, reference compound]",inhibition at 20 µM,Activated Protein C,74%
COc1cccc(OC)c1OCCNCC1COc2ccccc2O1 (stereo not shown) [WB 4101],Ki,alpha 1A (h),0.24 nM
"CCCCCC(=O)N[C@H]1CSCc2cc(CSCCNC(=O)CN3CCN(CC(=O)O)CCN(CC(=O)O)CCN(CC(=O)O)CC3)cc(c2)CSC[C@@H](C(=O)O)NC(=O)[C@H](Cc2ccccc2)NC(=O)[C@H](CCC(N)=O)NC(=O)[C@H]([C@@H](C)O)NC(=O)[C@@H]2CCCN2C(=O)[C@@H]2CCCN2C1=O [^177Lu-3BP-3554, metal not drawn]",body weight loss,HEK-FAP tumors; [7],No treatment-related body weight loss
same,body weight loss (BWL),Sarc4809 PDX tumors; [7],No treatment-related body weight loss
CCCCCC(=O)N[C@H]1CSCc2cc(CSCCNC(=O)CN3CCN4CCN5CCN(CC3)CC(=O)[O][Lu]([O]C(=O)C4)[O]C(=O)C5)cc(c2)CSC[C@@H](C(=O)O)NC(=O)[C@H](Cc2ccccc2)NC(=O)[C@H](CCC(N)=O)NC(=O)[C@H]([C@@H](C)O)NC(=O)[C@@H]2CCCN2C(=O)[C@@H]2CCCN2C1=O [^natLu-3BP-3554],mean tumor volume (MTV),"HEK-FAP tumors; cold compound, single i.v. injection Day 0, day 14",1392±420 mm^3
same,MTV,"Sarc4809 PDX tumors; cold compound (control group), day 31",1225±775 mm^3
Cystatin C,"Percentage inhibition (%), Reference",Cathepsin F,74%
alpha-dendrotoxin [reference compound],Ki,KV channel,0.097 nM
